Measured values: patent publication US9701675B2, “Activation of TRPV4 ion channel by physical stimuli and critical role for TRPV4 in organ-specific inflammation and itch” (Duke University, priority 2012, dated 2017)
“Also recorded” adds a separate entry of the source. Where a SMILES comes first, the peptide text is derived from it. [ ]: non-standard residue; d: D form.

What was measured:
TRPV4 [1] = molecular target: T1, TRPV4 (Mus musculus, UniProt Q9EPK8); experiment: 4α-PDD-evoked Ca++ signaling in 1° MK (fura-2 ratiometric imaging); type: cell-based
T1 construct: endogenous in cells; host or cells: primary mouse keratinocytes (WT 1° MK)
T1 sequence (Q9EPK8 whole entry): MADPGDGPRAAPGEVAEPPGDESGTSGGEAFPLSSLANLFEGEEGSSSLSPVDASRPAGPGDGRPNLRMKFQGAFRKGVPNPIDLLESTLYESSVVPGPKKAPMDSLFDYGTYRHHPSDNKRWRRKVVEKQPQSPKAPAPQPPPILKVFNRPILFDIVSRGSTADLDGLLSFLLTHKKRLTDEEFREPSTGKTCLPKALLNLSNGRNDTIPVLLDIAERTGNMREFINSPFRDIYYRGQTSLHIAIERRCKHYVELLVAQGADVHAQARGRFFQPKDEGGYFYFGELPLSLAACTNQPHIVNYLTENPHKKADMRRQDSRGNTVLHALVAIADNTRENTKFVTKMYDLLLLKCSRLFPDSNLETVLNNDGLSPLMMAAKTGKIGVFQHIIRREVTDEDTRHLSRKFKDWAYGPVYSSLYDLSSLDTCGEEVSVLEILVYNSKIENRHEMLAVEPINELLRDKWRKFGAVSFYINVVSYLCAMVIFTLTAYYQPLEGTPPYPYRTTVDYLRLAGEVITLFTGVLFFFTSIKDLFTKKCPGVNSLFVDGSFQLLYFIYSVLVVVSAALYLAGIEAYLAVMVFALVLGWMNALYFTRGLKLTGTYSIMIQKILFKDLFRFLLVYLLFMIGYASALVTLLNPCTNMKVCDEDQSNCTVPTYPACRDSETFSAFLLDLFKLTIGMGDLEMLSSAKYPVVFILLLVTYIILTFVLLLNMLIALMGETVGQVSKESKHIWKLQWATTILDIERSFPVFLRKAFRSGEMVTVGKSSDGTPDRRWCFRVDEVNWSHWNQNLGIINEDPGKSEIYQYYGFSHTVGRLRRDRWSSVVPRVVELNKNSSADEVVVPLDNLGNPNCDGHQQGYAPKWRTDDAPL
Method: (§1) Ca++ imaging of mouse 1° MK in response to chemical activation of TRPV4 was conducted after loading with 2 μM fura2-AM, following a ratiometric Ca2+ imaging protocol with 340/380 nm […] for dual excitation. Ratios of emissions were acquired at 0.5 Hz. ΔR/R0 was determined as the fraction of the increase of a given ratio over baseline ratio, divided by baseline ratio. For stimulation of cells with UVB, where fura-2 was not suitable because of the proximity of stimulation with 340/380 nm and 295 nm, 2 μM fluo4-AM was used instead. Ca++ imaging was carried out at 488 nm excitation, acquisition of emissions at 0.5 Hz, expressed as ΔF/F0. In the custom-built UV optical system, UV LEDs were capped with a ball lens, a transparent optical window in the shape of a hemispherical lens (FIG. 2B). The LED output optical beam focused at 15-20 mm from the lens, with a spot diameter of approximately 1.5-2.0 mm (FIG. 2C). […] The thermal equilibration stage was set for physiological temperature. We confirmed the non-thermal nature of UVB stimulation using the customized 295 nm LED device in a dedicated experiment (FIG. 2D), thus confirming the specific modality of stimulation as UVB.

ET1 [2] = experiment: ET1 secretion by non-stimulated 1° MK (ELISA of supernatant); type: cell-based, mouse; conditions: two doses of GSK205, dose-dependent
ET1 [3] = experiment: ET1 expression by UVB-exposed 1° MK (immunocytochemistry); type: cell-based, mouse; conditions: for ET1 immunoreactivity in UVB-exposed 1° MK: immunolabeling 24 hours after UVB-LED; for ET1 expression in UVB-exposed 1° MK, densitometric quantification: vs. control-treated and UVB-exposed cells, n≧25 cells, p<0.05
Method: 1° MK were exposed to UVB using the UV optical system (295 nm LED). 24 hours later the cells were fixed and fluorescently immunolabeled for ET1. Digital images were captured and subjected to morphometry.
Mouse keratinocytes were cultured on collagen coated quartz coverslips and then stimulated from the bottom using the previously mentioned UV optical system using the 295 nm LED. 24 hours later the cells were fixed in 4% formaldehyde in PBS for 20 minutes, permeabilized with 0.1% Triton X-100 in PBS for 10 minutes, washed, then blocked in 10% normal goat serum in PBS for 45 minutes. Coverslips were incubated overnight with primary antibody mouse anti-ET1 (1:200; Abcam), washed three times in PBS and incubated with secondary antibody for 2 hours at 25° C. Coverslips were washed three times in PBS, once with double-distilled H2O. Digital images were captured using a 40× immersion lens on the BX61 Olympus upright microscope. Morphometric analysis was conducted using ImageJ freeware with tailored regions-of-interest.

[4] = test system: primary mouse epidermal keratinocytes (1° MK); experiment: UVB-evoked Ca++ signaling in primary mouse keratinocytes (fluo-4 imaging); type: cell-based; conditions: for effect on ET1-augmented, UVB-induced Ca++ transients in 1° MK: UVB and ET1 co-exposure; for effect on UVB-evoked Ca++ signal in 1° MK: concentration not given (IPP: same dose as against camphor)
Method: Ca++ imaging of 1° MK was conducted following routine procedures. For UVB stimulation, a customized device was built. The system comprised a printed circuit board for electrical interconnects and mechanical support and an ultraviolet light-emitting diode (UV LED).
The operating wavelength was 295 nm (FIG. 2A), with a full-width half-max of 12 nm. The optical power was 500 mW. The focal point was aimed at the plane of the upper surface of the quartz coverslip, which was used to minimize UV absorption along the optical path towards the cells (FIG. 2A-C). The optical intensity at the focal point was estimated to be 150 mW/mm^2.
as §1, with “temperature.” for “temperature. We confirmed the non-thermal nature of UVB stimulation using the customized 295 nm LED device in a dedicated experiment (FIG. 2D), thus confirming the specific modality of stimulation as UVB.”

mice = experiment: Nocifensive behavior in response to ET1 footpad injection (von Frey); type: in vivo, mouse
Method: ET1 injections: After determining base-line withdrawal thresholds, each animal received an intraplantar injection of 10 μL 100 nM ET-1 plus contralateral vehicle. Thresholds were again evaluated 1 hour after injection.
Hindpaw mechanical withdrawal thresholds were determined by the automated von Frey hair method, using a 0.5 mm diameter stainless steel filament, part of an automated plantar touch stimulator (Ugo Basile, Modena, Italy). Relevant detail included pre-test acclimatization in a quiet room for 30 min, conducting the test at the same time of day and blinded observers. The stimulus was delivered to the hindpaw, automatically discontinued upon withdrawal, and its intensity recorded automatically. 6-8 trials per animal were conducted, with equal exposure of both hindpaws, leading to an average withdrawal threshold. Results are reported as Δ-threshold, which was calculated by subtracting post-treatment from pre-treatment measurements, expressed as % or relative to 1.0.

TRPV4 [5] = molecular target: T1, TRPV4; experiment: GSK101-evoked Ca++ transient in 1° MK (fura-2); type: cell-based
Method: as §1

TRPV3 = molecular target: T2, TRPV3 (Mus musculus, UniProt Q8K424); experiment: TRPV3 activation experiment: camphor-evoked Ca++ transient in keratinocytes; type: cell-based
T2 construct: endogenous in cells; host or cells: primary mouse keratinocytes (1° MK)
T2 sequence (Q8K424 1-791): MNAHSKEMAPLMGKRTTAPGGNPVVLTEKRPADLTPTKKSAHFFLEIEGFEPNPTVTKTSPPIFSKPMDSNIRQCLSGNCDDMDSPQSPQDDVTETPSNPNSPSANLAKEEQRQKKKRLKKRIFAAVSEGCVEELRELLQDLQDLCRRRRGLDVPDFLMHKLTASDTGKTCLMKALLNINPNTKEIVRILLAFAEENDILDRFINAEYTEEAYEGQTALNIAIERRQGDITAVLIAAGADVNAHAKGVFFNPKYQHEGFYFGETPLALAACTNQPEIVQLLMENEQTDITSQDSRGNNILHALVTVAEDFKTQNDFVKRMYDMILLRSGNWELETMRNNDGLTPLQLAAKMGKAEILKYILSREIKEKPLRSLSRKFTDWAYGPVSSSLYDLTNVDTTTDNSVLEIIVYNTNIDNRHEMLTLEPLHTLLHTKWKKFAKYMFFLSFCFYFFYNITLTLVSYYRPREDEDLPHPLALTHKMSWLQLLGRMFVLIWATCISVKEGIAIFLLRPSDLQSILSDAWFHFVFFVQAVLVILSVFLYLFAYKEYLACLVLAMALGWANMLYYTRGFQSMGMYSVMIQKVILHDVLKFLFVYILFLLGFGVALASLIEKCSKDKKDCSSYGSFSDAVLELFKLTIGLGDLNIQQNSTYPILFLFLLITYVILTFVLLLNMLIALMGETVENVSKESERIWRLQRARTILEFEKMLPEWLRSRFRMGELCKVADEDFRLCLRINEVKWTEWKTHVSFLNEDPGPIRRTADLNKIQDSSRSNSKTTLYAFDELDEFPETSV

Molecule | ET1 secretion by non-stimulated 1° MK (ET1 [2]) | ET1 immunoreactivity in UVB-exposed 1° MK (ET1 [3]) | ET1 expression in UVB-exposed 1° MK, densitometric quantification (ET1 [3]) | effect on UVB-evoked Ca++ signal in 1° MK [4] | also measured
CCCCCCCCCC(=O)O[C@@H]1[C@@H](C)[C@@]2(O)[C@@H](C=C(CO)C[C@@]3(O)C(=O)C(C)=C[C@@H]23)[C@@H]2C(C)(C)[C@]12OC(=O)CCCCCCCCC [4α-PDD, 4α-phorbol 12,13 didecanoate] |  |  |  |  | Ca++ transients evoked in 1° MK (TRPV4 [1]; 4α-PDD): Ca++ transients
CC(C)NCCN(C(C)C)S(=O)(=O)c1ccc(Cl)cc1Cl [RN1734] | significant down-regulation | diminished; also recorded: significant down-regulation | significant down-regulation |  | 
endothelin-1 [ET1] |  |  |  |  | effect of ET1 co-application on 4α-PDD-evoked Ca++ response (TRPV4 [1]; co-application with 4α-PDD): significant increase; effect of ET1 co-exposure on UVB-evoked Ca++ transients in 1° MK ([4]; co-exposure UVB + ET1 peptide): significant increase; also recorded: augmentation; mechanical allodynia after ET1 footpad injection, TRPV4-deficient mice (mice; Trpv4−/− and tam-treated iKO mice): fail to respond; mechanical withdrawal thresholds after ET1 footpad injection, control mice (mice; WT and oil-treated iKO mice, 10 μL 100 nM ET-1 intraplantar): significantly lowered; also recorded: significant levels of mechanical allodynia; effect of ET1 on GSK101-evoked Ca++ signaling (TRPV4 [5]; 5 nM GSK101, co-exposure to ET1): augmented; also recorded: increase in signal
CCCC[C@@H](NC(=O)[C@@H](Cc1cn(C(=O)OC)c2ccccc12)NC(=O)[C@H](CC(C)(C)C)NC(=O)N1[C@H](C)CCC[C@@H]1C)C(=O)O [BQ788] |  |  |  |  | effect on ET1-augmented, UVB-induced Ca++ transients in 1° MK [4]: attenuated
O=C(O)C(Cc1ccc2c(c1)oc1ccccc12)NCP(=O)(O)O (stereo not shown) [CGS35066] | down-regulation | significant down-regulation | significant down-regulation | significantly diminished; also recorded: significant attenuation | 
CC(C)C[C@@H]1NC(=O)[C@@H](C(C)C)NC(=O)[C@@H]2CCCN2C(=O)[C@@H](CC(=O)O)NC(=O)[C@@H](Cc2c[nH]c3ccccc23)NC1=O [BQ123] (cyclo(L[dW][dD]P[dV])) |  |  |  |  | effect on ET1-augmented, UVB-induced Ca++ transients in 1° MK [4]: attenuated
CC(C)C[C@H](NC(=O)c1cc2ccccc2s1)C(=O)N1CCN(C(=O)[C@H](CO)NS(=O)(=O)c2ccc(Cl)cc2Cl)CC1 [GSK101] |  |  |  |  | Ca++ transient evoked in 1° MK (TRPV4 [5]; 5 nM GSK101, WT 1° MK): directly stimulate TRPV4; also recorded: Ca++ transient
COc1ccc2c(c1)CC[C@@H]1[C@@H]2CC[C@]2(C)[C@@H](NCCCCCCN3C(=O)C=CC3=O)CC[C@@H]12 [U73122] | down-regulation | dampened; also recorded: significant down-regulation | significant down-regulation | virtually eliminated; also recorded: strongly reduced | 
CC12CCC(CC1=O)C2(C)C (stereo not shown) [camphor, Camphor] |  |  |  |  | induction of a Ca++ transient (TRPV3): Induction of a Ca++ transient
C=C(C)CCO[P@@](=O)(O)OP(=O)(O)O [IPP, isopentenyl pyrophosphate] |  |  |  | no effect; also recorded: not inhibited | 
